Measured values: ChEMBL document CHEMBL5209897, “Affinity Phenotypic Cellular Literature for EUbOPEN Chemogenomics Library wave 3” (2023)
One block for each compound: values may come before it.

Experiments:
[1] = biological target: T1, Calcium/calmodulin-dependent protein kinase kinase 2 (Homo sapiens, UniProt Q96RR4); experiment: Affinity Phenotypic Cellular interaction (Western Blot (downstream phosphorylation of AMPK in C4-2 cells)) EUB0000167b CAMKK2; type: cell-based; set-up: mode of action Inhibitor, recommended concentration 1 uM
Presenilin-1 [2] = biological target: T2, Presenilin-1 (Homo sapiens, UniProt P49768); experiment: Affinity Phenotypic Cellular interaction (Abeta40 inhibition assay (in SH-SY5Y (SP4CT) cells; APP as target)) EUB0000741a PSEN1; type: cell-based; set-up: mode of action Negative control for MRK-560, recommended concentration 100 nM
[3] = biological target: Mitogen-activated protein kinase 14 (Homo sapiens, UniProt Q16539); experiment: Affinity Phenotypic Cellular interaction (TNF-a release (stimmulated by LPS in human WB)) EUB0000711a MAPK14; type: functional; set-up: mode of action Negative control for SR318, recommended concentration 1 uM
[4] = biological target: T3, Mitogen-activated protein kinase 11 (Homo sapiens, UniProt Q15759); experiment: Affinity Phenotypic Cellular interaction (TNF-a release (stimmulated by LPS in human WB)) EUB0000711a MAPK11; type: functional; set-up: mode of action Negative control for SR318, recommended concentration 1 uM
Presenilin-1 [5] = biological target: T2, Presenilin-1; experiment: Affinity Phenotypic Cellular interaction (Abeta40 inhibition assay (in SH-SY5Y (SP4CT) cells; APP as target)) EUB0000750a PSEN1; type: cell-based; set-up: mode of action Inhibitor, recommended concentration 100 nM
[6] = biological target: B-cell lymphoma 6 protein (Homo sapiens, UniProt P41182); experiment: Affinity Phenotypic Cellular interaction (Inhibition of BCL6 co-repressor (BCoR, M2H assay/Bright-Glo luciferase assay in HEK293T cells, Promega)) EUB0000316c BCL6; type: cell-based; set-up: mode of action Inhibitor, recommended concentration 1 uM
[7] = biological target: Methionine aminopeptidase 2 (Homo sapiens, UniProt P50579); experiment: Affinity Phenotypic Cellular interaction (Western Blot (acumulation of Nmet14-3-3gamma in HUVEC cells)) EUB0000303b METAP2; type: cell-based; set-up: mode of action Inhibitor, recommended concentration 1 uM
[8] = biological target: T3, Mitogen-activated protein kinase 11; experiment: Affinity Phenotypic Cellular interaction (TNF-a release (stimmulated by LPS in human WB)) EUB0000718a MAPK11; type: functional; set-up: mode of action Inhibitor, recommended concentration 1 uM
[9] = biological target: T3, Mitogen-activated protein kinase 11
Presenilin-1 [10] = biological target: T2, Presenilin-1; experiment: Affinity Phenotypic Cellular interaction (Abeta42 inhibition assay (electrochemiluminescent detection of peptides secreted by SH-SY5Y cells stably overexpressing the APP C-terminal fragment SPA4CT)) EUB0000739a PSEN1; set-up: mode of action Negative control for GSM1, recommended concentration 1 uM
[11] = biological target: Ribosomal protein S6 kinase alpha-1 (Homo sapiens) (UniProt Q15418); experiment: Affinity Phenotypic Cellular interaction (Cellular mechanistic pACC assay using IMR-32 neuroblastoma cells) EUB0000707a RPS6KA1
[12] = biological target: 5'-AMP-activated protein kinase catalytic subunit alpha-1 (Homo sapiens, UniProt Q13131); experiment: Affinity Phenotypic Cellular interaction (Cellular mechanistic pACC assay using IMR-32 neuroblastoma cells) EUB0000707a PRKAA1; type: functional; set-up: mode of action Negative control for BAY-3827, recommended concentration 100 nM
[13] = Affinity Phenotypic Cellular interaction (Proliferation assay (CellTiter-Glo ATP assay in human lung H1299 cells)) EUB0000752a NDUFS2
[14] = biological target: T1, Calcium/calmodulin-dependent protein kinase kinase 2; experiment: Affinity Phenotypic Cellular interaction (Western Blot (downstream phosphorylation of AMPK in C4-2 cells)) EUB0000168b CAMKK2; type: cell-based; set-up: mode of action Negative control for SGC-CAMKK2-1 (UNC-YL-36), recommended concentration 1 uM
Activin receptor type-1B = Activin receptor type-1B (Homo sapiens, UniProt P36896); experiment: Affinity Phenotypic Cellular interaction (Western blot (inhibition of SMAD2/3 phosphorylation)) EUB0000710a ACVR1B
TGF-beta receptor type-1 = TGF-beta receptor type-1 (Homo sapiens, UniProt P36897); experiment: Affinity Phenotypic Cellular interaction (Western blot (inhibition of SMAD2/3 phosphorylation)) EUB0000710a TGFBR1
TGF-beta receptor type-1, sequence (P36897 whole entry): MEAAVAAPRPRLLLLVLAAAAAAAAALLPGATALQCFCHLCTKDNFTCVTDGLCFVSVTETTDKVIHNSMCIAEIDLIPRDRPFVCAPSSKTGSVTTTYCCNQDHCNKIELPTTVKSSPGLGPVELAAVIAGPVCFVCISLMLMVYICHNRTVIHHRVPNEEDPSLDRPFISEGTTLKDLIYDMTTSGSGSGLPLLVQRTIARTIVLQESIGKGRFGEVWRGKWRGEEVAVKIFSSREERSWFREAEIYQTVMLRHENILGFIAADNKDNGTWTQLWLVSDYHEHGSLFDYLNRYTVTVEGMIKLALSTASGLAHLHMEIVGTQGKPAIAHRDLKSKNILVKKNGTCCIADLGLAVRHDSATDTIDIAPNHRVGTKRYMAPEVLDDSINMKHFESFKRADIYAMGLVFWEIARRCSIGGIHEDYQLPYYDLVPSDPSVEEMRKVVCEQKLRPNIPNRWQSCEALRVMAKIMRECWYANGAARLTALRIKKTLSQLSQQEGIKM

T3 sequence (Q15759 whole entry): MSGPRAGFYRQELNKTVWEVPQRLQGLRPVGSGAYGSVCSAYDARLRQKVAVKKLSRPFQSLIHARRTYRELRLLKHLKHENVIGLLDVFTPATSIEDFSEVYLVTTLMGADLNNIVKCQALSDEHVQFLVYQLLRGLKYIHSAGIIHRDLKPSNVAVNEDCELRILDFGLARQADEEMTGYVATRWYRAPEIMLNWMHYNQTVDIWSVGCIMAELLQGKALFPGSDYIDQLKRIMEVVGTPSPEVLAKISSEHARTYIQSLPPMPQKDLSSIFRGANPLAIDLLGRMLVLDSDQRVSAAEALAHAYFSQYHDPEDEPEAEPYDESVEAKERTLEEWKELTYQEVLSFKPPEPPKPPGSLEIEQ
T1 sequence (Q96RR4 whole entry): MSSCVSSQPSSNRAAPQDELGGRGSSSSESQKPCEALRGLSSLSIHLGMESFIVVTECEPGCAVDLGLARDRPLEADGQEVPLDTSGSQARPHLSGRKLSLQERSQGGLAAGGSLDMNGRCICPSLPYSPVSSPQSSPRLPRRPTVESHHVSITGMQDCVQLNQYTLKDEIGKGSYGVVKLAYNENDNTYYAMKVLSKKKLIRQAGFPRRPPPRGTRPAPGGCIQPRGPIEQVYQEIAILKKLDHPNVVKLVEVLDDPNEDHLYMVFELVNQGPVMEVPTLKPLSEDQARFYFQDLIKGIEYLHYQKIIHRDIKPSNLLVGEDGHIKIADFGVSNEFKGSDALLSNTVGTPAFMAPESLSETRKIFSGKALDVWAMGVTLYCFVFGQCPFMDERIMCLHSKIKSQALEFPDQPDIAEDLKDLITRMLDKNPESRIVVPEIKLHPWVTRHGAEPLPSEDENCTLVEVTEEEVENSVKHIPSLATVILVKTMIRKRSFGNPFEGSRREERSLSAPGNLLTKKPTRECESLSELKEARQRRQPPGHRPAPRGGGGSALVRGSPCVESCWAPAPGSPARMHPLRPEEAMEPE
5'-AMP-activated protein kinase catalytic subunit alpha-1, sequence (Q13131 whole entry): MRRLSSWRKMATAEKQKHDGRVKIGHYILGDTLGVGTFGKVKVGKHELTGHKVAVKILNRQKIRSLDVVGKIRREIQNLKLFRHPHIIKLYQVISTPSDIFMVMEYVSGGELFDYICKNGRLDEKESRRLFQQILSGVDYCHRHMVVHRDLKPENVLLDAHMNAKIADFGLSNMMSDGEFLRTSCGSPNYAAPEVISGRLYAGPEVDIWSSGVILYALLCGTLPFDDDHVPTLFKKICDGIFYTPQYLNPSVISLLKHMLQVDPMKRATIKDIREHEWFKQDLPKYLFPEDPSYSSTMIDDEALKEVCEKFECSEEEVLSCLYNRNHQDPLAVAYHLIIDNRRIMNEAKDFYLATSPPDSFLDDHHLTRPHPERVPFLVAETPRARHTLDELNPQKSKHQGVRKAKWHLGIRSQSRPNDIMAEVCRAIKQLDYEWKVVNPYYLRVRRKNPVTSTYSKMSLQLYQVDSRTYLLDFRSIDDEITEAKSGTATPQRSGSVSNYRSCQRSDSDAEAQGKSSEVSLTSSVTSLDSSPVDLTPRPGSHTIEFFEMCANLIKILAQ
Mitogen-activated protein kinase 14, sequence (Q16539 whole entry): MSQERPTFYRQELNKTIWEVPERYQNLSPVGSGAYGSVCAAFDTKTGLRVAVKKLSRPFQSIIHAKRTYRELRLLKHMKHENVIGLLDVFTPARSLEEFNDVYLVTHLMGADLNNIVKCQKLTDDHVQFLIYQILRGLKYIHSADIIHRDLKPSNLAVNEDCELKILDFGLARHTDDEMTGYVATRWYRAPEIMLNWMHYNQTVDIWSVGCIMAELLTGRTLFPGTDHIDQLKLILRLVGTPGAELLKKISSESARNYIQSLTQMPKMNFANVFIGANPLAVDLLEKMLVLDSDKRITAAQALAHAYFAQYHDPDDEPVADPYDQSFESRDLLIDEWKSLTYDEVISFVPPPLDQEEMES
Ribosomal protein S6 kinase alpha-1 (Homo sapiens), sequence (Q15418 whole entry, looked up): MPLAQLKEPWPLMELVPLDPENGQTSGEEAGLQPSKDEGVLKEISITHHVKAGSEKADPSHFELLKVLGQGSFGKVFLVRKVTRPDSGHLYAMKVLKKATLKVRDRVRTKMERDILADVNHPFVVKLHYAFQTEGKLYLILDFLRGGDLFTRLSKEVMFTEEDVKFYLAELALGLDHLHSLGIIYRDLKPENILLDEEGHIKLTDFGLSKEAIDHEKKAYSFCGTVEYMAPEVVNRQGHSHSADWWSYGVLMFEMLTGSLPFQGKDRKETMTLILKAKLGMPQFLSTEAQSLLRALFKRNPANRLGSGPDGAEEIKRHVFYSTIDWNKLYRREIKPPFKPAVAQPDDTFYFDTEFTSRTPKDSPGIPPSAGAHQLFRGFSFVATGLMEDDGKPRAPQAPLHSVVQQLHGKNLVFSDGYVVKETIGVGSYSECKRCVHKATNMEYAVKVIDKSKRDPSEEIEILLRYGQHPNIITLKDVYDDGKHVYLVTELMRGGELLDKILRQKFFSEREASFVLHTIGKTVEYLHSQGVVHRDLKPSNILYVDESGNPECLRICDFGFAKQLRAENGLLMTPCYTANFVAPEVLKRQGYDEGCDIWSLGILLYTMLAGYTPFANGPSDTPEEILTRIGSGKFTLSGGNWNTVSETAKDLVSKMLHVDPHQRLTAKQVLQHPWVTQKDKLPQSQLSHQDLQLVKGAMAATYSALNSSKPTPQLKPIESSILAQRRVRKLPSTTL
Methionine aminopeptidase 2, sequence (P50579 whole entry): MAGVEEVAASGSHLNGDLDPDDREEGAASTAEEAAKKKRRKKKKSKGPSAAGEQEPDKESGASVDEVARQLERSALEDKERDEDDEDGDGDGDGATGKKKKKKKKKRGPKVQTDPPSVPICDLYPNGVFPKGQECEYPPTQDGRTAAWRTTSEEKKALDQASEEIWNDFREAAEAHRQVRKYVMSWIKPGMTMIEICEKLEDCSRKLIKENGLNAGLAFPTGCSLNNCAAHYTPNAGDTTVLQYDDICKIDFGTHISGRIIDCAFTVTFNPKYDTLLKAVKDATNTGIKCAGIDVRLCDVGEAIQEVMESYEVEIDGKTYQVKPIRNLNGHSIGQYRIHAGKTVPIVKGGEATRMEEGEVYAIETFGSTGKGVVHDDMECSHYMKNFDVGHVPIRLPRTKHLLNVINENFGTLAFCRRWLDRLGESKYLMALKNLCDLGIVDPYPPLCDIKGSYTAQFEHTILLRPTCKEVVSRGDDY
Activin receptor type-1B, sequence (P36896 whole entry): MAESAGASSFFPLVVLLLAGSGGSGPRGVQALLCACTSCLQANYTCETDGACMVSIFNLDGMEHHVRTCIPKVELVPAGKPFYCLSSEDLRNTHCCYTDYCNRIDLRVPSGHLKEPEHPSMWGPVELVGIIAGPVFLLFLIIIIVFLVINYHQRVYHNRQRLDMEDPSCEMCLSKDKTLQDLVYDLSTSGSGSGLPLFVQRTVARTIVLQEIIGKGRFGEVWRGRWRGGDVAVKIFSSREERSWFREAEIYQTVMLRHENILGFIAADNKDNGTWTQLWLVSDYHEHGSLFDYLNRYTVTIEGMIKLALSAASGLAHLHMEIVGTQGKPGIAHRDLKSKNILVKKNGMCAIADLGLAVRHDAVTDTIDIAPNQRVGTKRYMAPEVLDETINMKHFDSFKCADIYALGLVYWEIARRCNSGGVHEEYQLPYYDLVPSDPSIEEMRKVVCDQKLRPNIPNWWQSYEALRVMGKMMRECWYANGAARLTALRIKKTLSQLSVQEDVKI

IC50 [1]: 1.6 µM
SMILES: Cc1cccc(-c2cnc3occ(-c4ccc(C(=O)O)c(C5CCCC5)c4)c3c2)c1

IC50 (Presenilin-1 [2]): 1.6 µM
SMILES: CC(C)(C)OC(=O)N1CCCC1CNC1CCC(c2cc(F)ccc2F)(S(=O)(=O)c2ccc(Cl)cc2)CC1 (stereo unspecified) [GSI-NC]

IC50 [3]: > 10 µM | IC50 [4]: > 10 µM
SMILES: O=C(NCCCC1CCCCC1)c1ccc(CNC(=O)c2cnn(-c3ccccc3)c2C(F)(F)F)cc1 [SR-321]

IC50 (Presenilin-1 [5]): < 0.0005 µM
SMILES: O=S(=O)(NC1CCC(c2cc(F)ccc2F)(S(=O)(=O)c2ccc(Cl)cc2)CC1)C(F)(F)F (stereo unspecified) [MRK-560]

IC50 [6]: 0.72 µM
SMILES: O=C1CCc2cc(Nc3cc(OC4CCOCC4)c([N+](=O)[O-])cc3Cl)ccc2N1

EC50 [7]: 0.015 µM
SMILES: Cc1nc(N2CC[C@H](O)C2)ncc1-c1cc(C(F)(F)F)cc2[nH]ncc12

IC50 [8]: 0.038 µM
SMILES: O=C(NCCN1CCOCC1)c1ccc2c(c1)C(=O)c1ccc(Nc3ccc(F)c(NC(=O)c4ccccc4)c3)cc1CC2 [FS-694]

SMILES: O=C1c2ccc(Nc3ccc(F)cc3F)cc2CCc2ccc(OC[C@H](O)CO)cc21 [Skepinone-L]
IC50 [9]: 0.025 µM

IC50 (Presenilin-1 [10]): > 10 µM
SMILES: COc1cc(-c2cn([C@H]3CCc4ccccc4N(CC(F)(F)F)C3=O)nn2)ccc1-n1ccc(C)n1

IC50 [11]: > 30 µM | IC50 [12]: > 30 µM
SMILES: CC1=C(C#N)C(c2ccc3c(c2)c(NC(=O)c2ccccc2C)nn3C)C(C#N)=C(C)N1 [BAY-974]

IC50 [13]: 0.033 µM
SMILES: c1ccc2oc(-c3csc(C4CCN(Cc5nc6ncccc6[nH]5)CC4)n3)cc2c1

IC50 [14]: > 10 µM
SMILES: O=C(O)c1ccc(-c2coc3ncc(-c4ccccc4)cc23)cc1Cl

EC50 (Activin receptor type-1B): > 10 µM | EC50 (TGF-beta receptor type-1): > 10 µM
SMILES: Cc1cnc(-c2cc(Cl)ccc2F)cc1-n1c(=O)n(CC(N)=O)c2ccccc21 [Al11]
